Source: patent EP0126580B1 (priority 1983, dated 1984)

Settings: rat, in vivo

Compound: C[n+]1ccccc1/C=N/O [2-PAMCl, 2-pralidoxime chloride]
- lethality: fatal to all rats
- time in which the blood concentration drops below therapeutic level (TL): 2 to 3 h
- time therapeutic plasma drug level maintained: 2-1/4 hours
- time to death after injection: ≤ 30 min
- blood drug level achieved (im): 20000 ng/mL
